Results from patent US11897880B2, “7,8-dihydrobenzo[e]pyrido[3,4-c]azocine-2,5(3H,6H)-dione derivatives useful as a factor XIa inhibitors” (Janssen Pharmaceutica NV, priority 2021, dated 2024).
Peptide text beside a SMILES is read from it. * marks the point of attachment. 5FAM = O=C1OC2(c3ccc(O)cc3Oc3cc(O)ccc32)c2ccc(C(=O)*)cc21; AMC = Cc1cc(=O)oc2cc(N*)ccc12; Cbz = O=C(OCc1ccccc1)*

Columns and labels:
Assay type in all cases: biochemical
Factor XIa [1] = target: T1, Factor XIa (Homo sapiens, UniProt P03951); assay: Kinetic parameters of the peptide substrate 5Fam-KLTRAETV-K5Tamra with FXIa (substrate inhibition model)
Source text: A fluorescence intensity (FLINT) based assay was used to monitor inhibition of Factor XIa. The peptide substrate, 5Fam-KLTRAETV-K5Tamra (purchased from New England Peptide) was chosen based on the FXI sequence. Conversion of zymogen FXI to its activated form, FXIa, occurs by proteolytic cleavage by […] at two sites, Arg146 and Arg180. The custom peptide used in this assay was based on the Arg146 cleavage site of FXI. The peptide substrate was designed with a fluorophore-quencher pair, where the fluorescence is quenched until FXIa cleaves the 8-mer peptide after the Arg residue.

Factor XIa [2] = target: T1, Factor XIa; assay: Factor XIa inhibition assay utilizing a fluorophore-quencher pair peptide substrate (FLINT); details: for IC50: 30 min preincubation, 5Fam-KLTRAETV-K5Tamra substrate 15 μM final, kinetic reads, read-out: FXIa IC50; for Ki: read-out: FXIa Ki
How it was run: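 Enzyme preincubated 30 min at room temperature with compound (11-point 3-fold dilution, top 100 nM, 2% DMSO), then 15 μM 5Fam-KLTRAETV-K5Tamra substrate added. Buffer: 50 mM Tris pH 7.5, 100 mM NaCl, 5 mM CaCl2, 0.1 mg/mL BSA, 0.03% CHAPS. Fluorescence (485/520 nm) read kinetically over 30 min; IC50 from 4-parameter logistic fit.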

human plasma kallikrein [3] = target: T2, human plasma kallikrein (Homo sapiens, UniProt P03952); assay: Kallikrein inhibition assay utilizing a quenched AMC peptide substrate (FLINT); details: 30 min preincubation, 50 μM Z-Gly-Pro-Arg-AMC, 2 nM kallikrein
How it was run: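 Human plasma kallikrein (2 nM final) was preincubated 30 min at room temperature with compound (11-point 3-fold dilution, top 1 μM, 2% DMSO) in pH 7.5 Tris buffer with CaCl2, BSA and CHAPS. Z-Gly-Pro-Arg-AMC (50 μM final) fluorescence was read at 340/440 nm every 5 min for 30 min. IC50 came from a 4-parameter logistic fit.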

human plasma kallikrein [4] = target: T2, human plasma kallikrein; assay: Kinetic parameters of the substrate Z-Gly-Pro-Arg-AMC with kallikrein (Michaelis-Menten fit)
Source text: A fluorescence intensity (FLINT) based assay was used to monitor inhibition of human plasma kallikrein. The peptide substrate, Z-Gly-Pro-Arg-AMC (Purchased from Bachem; Catalog #1-1150) was chosen based on its relatively low KM for kallikrein which enables running the assay at lower substrate concentrations to control background fluorescence.

T2 sequence (P03952 391-638 limits assumed): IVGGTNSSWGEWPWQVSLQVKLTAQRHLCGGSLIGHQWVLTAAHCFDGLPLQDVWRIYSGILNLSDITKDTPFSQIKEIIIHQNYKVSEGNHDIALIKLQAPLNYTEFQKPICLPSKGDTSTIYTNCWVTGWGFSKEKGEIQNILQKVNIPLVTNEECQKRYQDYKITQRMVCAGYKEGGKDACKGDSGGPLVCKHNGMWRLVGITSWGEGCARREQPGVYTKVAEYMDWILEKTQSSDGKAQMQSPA
T2 sequence (P03952 20-390 partner limits assumed): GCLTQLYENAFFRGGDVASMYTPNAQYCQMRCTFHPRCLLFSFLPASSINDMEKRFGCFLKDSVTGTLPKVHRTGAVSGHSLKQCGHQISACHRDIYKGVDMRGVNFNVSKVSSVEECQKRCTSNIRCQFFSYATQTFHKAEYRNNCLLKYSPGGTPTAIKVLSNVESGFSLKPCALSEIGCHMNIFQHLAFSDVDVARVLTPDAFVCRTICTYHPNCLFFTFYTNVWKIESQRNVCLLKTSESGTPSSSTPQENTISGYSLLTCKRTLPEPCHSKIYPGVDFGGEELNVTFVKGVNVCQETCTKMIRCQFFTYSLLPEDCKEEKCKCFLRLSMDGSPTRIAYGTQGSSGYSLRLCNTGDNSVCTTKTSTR
T1 sequence (P03951 388-625 limits assumed): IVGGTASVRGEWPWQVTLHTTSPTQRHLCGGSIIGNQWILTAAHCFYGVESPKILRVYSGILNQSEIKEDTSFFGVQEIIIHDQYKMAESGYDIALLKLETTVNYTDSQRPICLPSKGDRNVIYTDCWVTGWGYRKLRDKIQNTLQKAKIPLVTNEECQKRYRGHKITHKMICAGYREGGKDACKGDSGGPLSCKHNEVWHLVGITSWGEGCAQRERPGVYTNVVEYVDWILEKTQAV
T1 sequence (P03951 19-387 partner limits assumed): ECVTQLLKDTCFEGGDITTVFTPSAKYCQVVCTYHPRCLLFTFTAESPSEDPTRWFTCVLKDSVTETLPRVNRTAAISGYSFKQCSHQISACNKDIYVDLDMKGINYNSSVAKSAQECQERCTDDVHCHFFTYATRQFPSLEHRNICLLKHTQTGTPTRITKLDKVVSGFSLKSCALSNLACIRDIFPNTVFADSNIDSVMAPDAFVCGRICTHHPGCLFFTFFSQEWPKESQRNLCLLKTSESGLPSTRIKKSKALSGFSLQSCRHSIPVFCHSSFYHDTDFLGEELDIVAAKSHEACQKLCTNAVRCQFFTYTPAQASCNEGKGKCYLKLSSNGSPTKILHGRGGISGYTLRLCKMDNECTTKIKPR

Compound	Ki (Factor XIa [1]; substrate inhibition constant)	Km (Factor XIa [1]; substrate with FXIa)	kcat (Factor XIa [1]; substrate with FXIa)	IC50 (Factor XIa [2])	Ki (Factor XIa [2])	IC50 (human plasma kallikrein [3])	kcat (human plasma kallikrein [4])
5Fam-KLTRAETV-K5Tamra (5FAM-KLTRAETV-{K(5-TAMRA)}) [fluorophore-quencher pair peptide substrate based on the Arg146 cleavage site of FXI, purchased from New England Peptide]	61600 nM	12.4 µM	0.86 s⁻¹	–	–	–	–
Nc1ccc(-c2cnc([C@H]3CCc4c5c(cc(=O)n43)-c3c(ccc(Cl)c3F)CC3(CC3)NC5=O)[nH]2)c(F)n1 (stereo in doubt) [Compound 54, (R*)-12-(5-(6-amino-2-fluoropyridin-3-yl)-1H-imidazol-2-yl)-7-chloro-8-fluoro-13,14-dihydro-2H-spiro[benzo[5,6]azocino[4,3-g]indolizine-3,1′-cyclopropane]-1,10(4H,12H)-dione]	–	–	–	224 nM	112 nM	> 10000 nM	–
Nc1ccc(-c2[nH]c(C3CCc4c5c(cc(=O)n43)-c3cc(Cl)ccc3CC3(CC3)NC5=O)nc2F)c(F)n1 (stereo not shown) [Compound 1, 12-(5-(6-amino-2-fluoropyridin-3-yl)-4-fluoro-1H-imidazol-2-yl)-7-chloro-13,14-dihydro-2H-spiro[benzo[5,6]azocino[4,3-g]indolizine-3,1′-cyclopropane]-1,10(4H,12H)-dione]	–	–	–	1.5 nM	0.8 nM	540 nM	–
Nc1ccc(-c2cnc(C3CCc4c5c(cc(=O)n43)-c3cc(Cl)ccc3CC3(CC3)NC5=O)[nH]2)c(F)n1 (stereo not shown) [Compound 2, 12-(5-(6-amino-2-fluoropyridin-3-yl)-1H-imidazol-2-yl)-7-chloro-13,14-dihydro-2H-spiro[benzo[5,6]azocino[4,3-g]indolizine-3,1′-cyclopropane]-1,10(4H,12H)-dione]	–	–	–	3 nM	1.5 nM	470 nM	–
O=C1NC2(CC2)Cc2ccc(Cl)c(F)c2-c2cc(=O)n3c(c21)CCC3c1ncc(-c2ccnc(CO)c2F)[nH]1 (stereo not shown) [Compound 3, 7-chloro-8-fluoro-12-(5-(3-fluoro-2-(hydroxymethyl)pyridin-4-yl)-1H-imidazol-2-yl)-13,14-dihydro-2H-spiro[benzo[5,6]azocino[4,3-g]indolizine-3,1′-cyclopropane]-1,10(4H,12H)-dione]	–	–	–	15.3 nM	7.6 nM	790 nM	–
Nc1ccc(-c2cnc([C@@H]3CCc4c5c(cc(=O)n43)-c3c(ccc(Cl)c3F)CC3(CC3)NC5=O)[nH]2)c(Cl)n1 [Compound 52, (S)-12-(5-(6-amino-2-chloropyridin-3-yl)-1H-imidazol-2-yl)-7-chloro-8-fluoro-13,14-dihydro-2H-spiro[benzo[5,6]azocino[4,3-g]indolizine-3,1′-cyclopropane]-1,10(4H,12H)-dione]	–	–	–	0.2 nM	0.1 nM	70 nM	–
COC(=O)Nc1ccc(-c2cnc([C@H](CC3CC3)n3cc4c(cc3=O)-c3c(ccc(Cl)c3F)CC3(CC3)NC4=O)[nH]2)cc1 [Compound 61, Methyl (S)-(4-(2-(1-(11-chloro-12-fluoro-2,5-dioxo-2,5,6,8-tetrahydro-3H-spiro[benzo[e]pyrido[3,4-c]azocine-7,1′-cyclopropan]-3-yl)-2-cyclopropylethyl)-1H-imidazol-5-yl)phenyl)carbamate]	–	–	–	1 nM	0.5 nM	120 nM	–
Cc1cc(=O)oc2cc(NC(=O)[C@H](CCCNC(=N)N)NC(=O)[C@@H]3CCCN3C(=O)CNC(=O)OCc3ccccc3)ccc12 [Z-Gly-Pro-Arg-AMC] (Cbz-Gly-Pro-Arg-{AMC})	–	–	–	–	–	–	0.76 s⁻¹
